Literature values as cited in patent US20230167505A1, “CIRCULATING TUMOR DNA AS A BIOMARKER FOR LEUKEMIA TREATMENT” (Cardiff Oncology, Inc., priority 2020, published 2023).

Conditions: in vivo; cited from earlier work

In the case of CC[C@@H]1C(=O)N(C)c2cnc(Nc3ccc(C(=O)N[C@H]4CC[C@H](N5CCN(CC6CC6)CC5)CC4)cc3OC)nc2N1C(C)C [volasertib], the half-life is listed as about 120 h.
